Reference: ChEMBL document CHEMBL4706681, “New 2-Pyrazoline and Hydrazone Derivatives as Potent and Selective Monoamine Oxidase A Inhibitors” (J Med Chem, 2021)

test system: not listed separately; assay: Selectivity index, ratio of Ki for inhibition of recombinant human MAO-A to Ki for inhibition of recombinant human MAO-B using p-tyramine as substrate

Ratio Ki | Structure (SMILES)
3.43 10^-5No_unit | COc1ccc(C(/C=C/c2ccccc2Cl)=N/NC(=O)Cn2c(=O)oc3ccccc32)cc1
0.003 | COc1ccc(C2=NN(C(=O)Cn3c(=O)oc4ccc(Cl)cc43)C(c3ccccc3Cl)C2)cc1 (stereo not given)
0.002 | COc1ccc(C2=NN(C(=O)Cn3c(=O)oc4ccc(Cl)cc43)C(c3ccccc3)C2)cc1 (stereo not given)
0.107 | COc1ccc(C2=NN(C(=O)Cn3c(=O)oc4ccc(C)cc43)C(c3ccccc3)C2)cc1 (stereo not given)
2.35 10^-4No_unit | COc1cccc(C2CC(c3ccccc3)=NN2C(=O)Cn2c(=O)oc3ccc(C)cc32)c1 (stereo not given)
0.011 | COc1ccccc1C1=NN(C(=O)Cn2c(=O)oc3ccccc32)C(c2ccccc2Cl)C1 (stereo not given)
0.008 | COc1cccc(C2=NN(C(=O)Cn3c(=O)oc4ccccc43)C(c3ccccc3Cl)C2)c1 (stereo not given)
5.26 10^-5No_unit | O=C(Cn1c(=O)oc2ccccc21)N/N=C(\C=C\c1ccccc1)c1ccccc1
6.65 10^-4No_unit | COc1ccccc1C(/C=C/c1ccccc1Cl)=N/NC(=O)Cn1c(=O)oc2ccc(C)cc21
2.32 10^-4No_unit | COc1cccc(C2CC(c3ccc(C)cc3)=NN2C(=O)Cn2c(=O)oc3ccccc32)c1OC (stereo not given)

target: T1, Amine oxidase [flavin-containing] A (Homo sapiens, UniProt P21397); assay: Inhibition of recombinant human MAO-A expressed in baculovirus infected BTI insect cells using p-tyramine as substrate incubated for 30 mins by Amplex red reagent based fluorescence analysis
T1 sequence (P21397 whole entry): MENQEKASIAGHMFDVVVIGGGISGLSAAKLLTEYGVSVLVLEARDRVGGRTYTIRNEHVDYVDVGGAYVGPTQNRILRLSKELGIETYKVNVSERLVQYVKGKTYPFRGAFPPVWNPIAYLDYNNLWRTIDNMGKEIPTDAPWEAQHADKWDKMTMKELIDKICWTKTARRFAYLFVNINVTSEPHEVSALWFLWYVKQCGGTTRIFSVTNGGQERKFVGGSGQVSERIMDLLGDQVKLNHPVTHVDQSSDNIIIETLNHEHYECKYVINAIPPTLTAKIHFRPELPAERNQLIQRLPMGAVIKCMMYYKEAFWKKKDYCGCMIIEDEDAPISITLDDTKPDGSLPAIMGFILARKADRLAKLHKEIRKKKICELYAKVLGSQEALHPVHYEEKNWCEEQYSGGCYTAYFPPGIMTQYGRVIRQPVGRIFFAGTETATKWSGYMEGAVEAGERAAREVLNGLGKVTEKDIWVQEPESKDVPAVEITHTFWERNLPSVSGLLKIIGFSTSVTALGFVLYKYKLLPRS

Ki | Structure (SMILES)
1 nM | COc1ccc(C(/C=C/c2ccccc2Cl)=N/NC(=O)Cn2c(=O)oc3ccccc32)cc1
65 nM | COc1ccc(C2=NN(C(=O)Cn3c(=O)oc4ccc(Cl)cc43)C(c3ccccc3Cl)C2)cc1 (stereo not given)
4 nM | COc1ccc(C2=NN(C(=O)Cn3c(=O)oc4ccc(Cl)cc43)C(c3ccccc3)C2)cc1 (stereo not given)
800 nM | COc1ccc(C2=NN(C(=O)Cn3c(=O)oc4ccc(C)cc43)C(c3ccccc3)C2)cc1 (stereo not given)
5 nM | COc1cccc(C2CC(c3ccccc3)=NN2C(=O)Cn2c(=O)oc3ccc(C)cc32)c1 (stereo not given)
13 nM | COc1ccccc1C1=NN(C(=O)Cn2c(=O)oc3ccccc32)C(c2ccccc2Cl)C1 (stereo not given)
60 nM | COc1cccc(C2=NN(C(=O)Cn3c(=O)oc4ccccc43)C(c3ccccc3Cl)C2)c1 (stereo not given)
1 nM | O=C(Cn1c(=O)oc2ccccc21)N/N=C(\C=C\c1ccccc1)c1ccccc1
11 nM | COc1ccccc1C(/C=C/c1ccccc1Cl)=N/NC(=O)Cn1c(=O)oc2ccc(C)cc21
28 nM | COc1cccc(C2CC(c3ccc(C)cc3)=NN2C(=O)Cn2c(=O)oc3ccccc32)c1OC (stereo not given)

target: T2, Amine oxidase [flavin-containing] B (Homo sapiens, UniProt P27338); assay: Inhibition of recombinant human MAO-B expressed in baculovirus infected BTI insect cells using p-tyramine as substrate incubated for 30 mins by Amplex red reagent based fluorescence analysis; assay type: cell-based
T2 sequence (P27338 whole entry): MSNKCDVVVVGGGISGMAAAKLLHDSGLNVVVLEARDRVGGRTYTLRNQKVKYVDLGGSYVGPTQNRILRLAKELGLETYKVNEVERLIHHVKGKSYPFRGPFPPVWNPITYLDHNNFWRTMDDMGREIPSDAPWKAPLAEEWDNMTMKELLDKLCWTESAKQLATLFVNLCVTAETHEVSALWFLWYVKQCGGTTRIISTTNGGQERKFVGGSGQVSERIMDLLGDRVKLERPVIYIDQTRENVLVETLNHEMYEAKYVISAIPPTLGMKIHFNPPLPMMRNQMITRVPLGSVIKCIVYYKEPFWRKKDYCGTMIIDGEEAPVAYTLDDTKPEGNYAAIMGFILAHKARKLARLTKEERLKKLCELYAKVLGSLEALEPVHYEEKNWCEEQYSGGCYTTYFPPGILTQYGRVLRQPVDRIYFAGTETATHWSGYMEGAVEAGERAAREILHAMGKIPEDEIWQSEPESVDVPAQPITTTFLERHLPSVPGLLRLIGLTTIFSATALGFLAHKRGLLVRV

Ki | Structure (SMILES)
35000 nM | COc1ccc(C(/C=C/c2ccccc2Cl)=N/NC(=O)Cn2c(=O)oc3ccccc32)cc1
25600 nM | COc1ccc(C2=NN(C(=O)Cn3c(=O)oc4ccc(Cl)cc43)C(c3ccccc3Cl)C2)cc1 (stereo not given)
1950 nM | COc1ccc(C2=NN(C(=O)Cn3c(=O)oc4ccc(Cl)cc43)C(c3ccccc3)C2)cc1 (stereo not given)
7500 nM | COc1ccc(C2=NN(C(=O)Cn3c(=O)oc4ccc(C)cc43)C(c3ccccc3)C2)cc1 (stereo not given)
21300 nM | COc1cccc(C2CC(c3ccccc3)=NN2C(=O)Cn2c(=O)oc3ccc(C)cc32)c1 (stereo not given)
1150 nM | COc1ccccc1C1=NN(C(=O)Cn2c(=O)oc3ccccc32)C(c2ccccc2Cl)C1 (stereo not given)
7500 nM | COc1cccc(C2=NN(C(=O)Cn3c(=O)oc4ccccc43)C(c3ccccc3Cl)C2)c1 (stereo not given)
19000 nM | O=C(Cn1c(=O)oc2ccccc21)N/N=C(\C=C\c1ccccc1)c1ccccc1
16600 nM | COc1ccccc1C(/C=C/c1ccccc1Cl)=N/NC(=O)Cn1c(=O)oc2ccc(C)cc21
120000 nM | COc1cccc(C2CC(c3ccc(C)cc3)=NN2C(=O)Cn2c(=O)oc3ccccc32)c1OC (stereo not given)
